Experimental data published in patent publication US20180098959A1, “METHODS FOR TREATING CANCER” (BOSTON BIOMEDICAL, INC., priority 2015, published 2018).

What was measured:
[1] = tested on: hepatocellular carcinoma; experiment: combination with FOLFOX, hepatocellular carcinoma patients; type: in vivo, human; settings: Chemo Backbone FOLFOX
Method: The effects of 2-acetylnaphtho[2,3-b]furan-4,9-dione in combination with FOLFOX were assessed in adult patients with hepatocellular carcinoma in a clinical study.
Patients who were pretreated with 1 and 4 lines of prior treatment, respectively, received oral administration of 2-acetylnaphtho[2,3-b]furan-4,9-dione twice daily together with FOLFOX. For example, 2-acetylnaphtho[2,3-b]furan-4,9-dione was administered at a dose of 240 mg BID in combination with FOLFOX. Oxaliplatin 85 mg/m^2 together with leucovorin 400 mg/m^2 were administered intravenously. 5-FU 400 mg/m^2 bolus was administered intravenously immediately following oxaliplatin/leucovorin infusion, followed by 5-FU 1200 mg/m^2/day (total 2400 mg/m^2 over 46-48 hours) continuous intravenous infusion. This regimen was repeated every 14 days thereafter or until progression of disease, unacceptable toxicity, or other discontinuation criterion was met.

[2] = tested on: FaDu sphere cultures; experiment: qPCR cancer stem cell array, gene expression after treatment; type: cell-based; set-up: % Change ATM gene expression / % Change WEE1 gene expression / % Change ACTB gene expression / % Change MERTK gene expression / % Change FGFR2 gene expression / % Change EPCAM gene expression / % Change NOTCH2 gene expression / % Change DDR1 gene expression / % Change STAT3 gene expression / % Change LATS1 gene expression / % Change GSK3B gene expression / % Change TWIST2 gene expression / % Change ITGA2 gene expression / % Change ENG gene expression / % Change PLAUR gene expression / % Change SMO gene expression / % Change DACH1 gene expression / % Change EGF gene expression / % Change TGFBR1 gene expression / % Change ALCAM gene expression / % Change ALDH1A1 gene expression / % Change MAML1 gene expression / % Change HDAC1 gene expression / % Change RPLP0 gene expression / % Change WWC1 gene expression / % Change CD44 gene expression / % Change TAZ gene expression / % Change ITGA6 gene expression / % Change HPRT1 gene expression / % Change JAG1 gene expression / % Change ITGB1 gene expression / % Change IKBKB gene expression / % Change ID1 gene expression / % Change AXL gene expression / % Change DNMT1 gene expression / % Change ITGA4 gene expression / % Change KITLG gene expression / % Change ETFA gene expression / % Change IL8 gene expression / % Change JAK2 gene expression / % Change FOXP1 gene expression / % Change MYC gene expression / % Change NANOG gene expression / % Change YAP1 gene expression / % Change FLOT2 gene expression / % Change KLF17 gene expression / % Change BMI1 gene expression / % Change CHEK1 gene expression / % Change CD34 gene expression / % Change NOTCH1 gene expression / % Change LIN28A gene expression / % Change ATXN1 gene expression / % Change MUC1 gene expression / % Change POU5F1 gene expression / % Change ERBB2 gene expression / % Change CD24 gene expression / % Change PECAM1 gene expression / % Change SIRT1 gene expression / % Change NFKB1 gene expression: dose or concentration left out as unconfirmed
Method: Changes in gene expression following treatment with 2-acetylnaphtho[2,3-b]furan-4,9-dione were evaluated using a cancer stem cell PCR array.
FaDu sphere cultures were treated for 6 hours with DMSO (control) or 2-acetylnaphtho[2,3-b]furan-4,9-dione at 2 mM. RNA was isolated, reversed transcribed, and the resulting cDNA was analyzed using a qPCR cancer stem cell array. Glyceraldehyde 3-phosphate dehydrogenase (GAPDH) was used as a housekeeping gene to normalize the data.

[3] = FaDu sphere cultures, 6 hours, GAPDH-normalized, vs DMSO control

## CC(=O)c1cc2c(o1)C(=O)c1ccccc1C2=O [2-acetylnaphtho[2,3-b]furan-4,9-dione]
[1]; Patient 0089, BBI608 240 mg bid, 1 prior line
  Best Response, regression: 9%
[1]; Patient 0121, BBI608 240 mg bid, 4 prior lines
  Best Response, regression: 9%
[2]; [3]
  % Change ACTB gene expression: −24.49%
  % Change ALCAM gene expression: −36.13%
  % Change ALDH1A1 gene expression: −18.18%
  % Change ATM gene expression: −68.65%
  % Change ATXN1 gene expression: −45.26%
  % Change AXL gene expression: −48.50%
  % Change B2M gene expression: −27.69%
  % Change BMI1 gene expression: −47.40%
  % Change CD24 gene expression: −26.46%
  % Change CD34 gene expression: −88.18%
  % Change CD44 gene expression: −35.44%
  % Change CHEK1 gene expression: −28.88%
  % Change DACH1 gene expression: −36.55%
  % Change DDR1 gene expression: −38.59%
  % Change DNMT1 gene expression: −32.09%
  % Change EGF gene expression: −19.07%
  % Change ENG gene expression: −37.62%
  % Change EPCAM gene expression: −22.87%
  % Change ERBB2 gene expression: −43.81%
  % Change ETFA gene expression: −31.12%
  % Change FGFR2 gene expression: −41.18%
  % Change FLOT2 gene expression: −29.19%
  % Change FOXP1 gene expression: −29.76%
  % Change GSK3B gene expression: −38.06%
  % Change HDAC1 gene expression: −36.10%
  % Change HPRT1 gene expression: −33.81%
  % Change ID1 gene expression: −12.68%
  % Change IKBKB gene expression: −32.11%
  % Change IL8 gene expression: −7.62%
  % Change ITGA2 gene expression: −60.71%
  % Change ITGA4 gene expression: −11.52%
  % Change ITGA6 gene expression: −54.63%
  % Change ITGB1 gene expression: −50.45%
  % Change JAG1 gene expression: −14.24%
  % Change JAK2 gene expression: −47.94%
  % Change KITLG gene expression: −47.99%
  % Change KLF17 gene expression: −90.18%
  % Change LATS1 gene expression: −60.75%
  % Change LIN28A gene expression: −87.52%
  % Change MAML1 gene expression: −52.82%
  % Change MERTK gene expression: −65.78%
  % Change MUC1 gene expression: −27.42%
  % Change MYC gene expression: −3.91%
  % Change NANOG gene expression: −93.34%
  % Change NFKB1 gene expression: −25.54%
  % Change NOTCH1 gene expression: −46.24%
  % Change NOTCH2 gene expression: −64.37%
  % Change PECAM1 gene expression: −70.26%
  % Change PLAUR gene expression: −20.64%
  % Change POU5F1 gene expression: −77.31%
  % Change RPLP0 gene expression: −17.48%
  % Change SIRT1 gene expression: −43.35%
  % Change SMO gene expression: −55.56%
  % Change STAT3 gene expression: −22.87%
  % Change TAZ gene expression: −15.09%
  % Change TGFBR1 gene expression: −53.34%
  % Change TWIST2 gene expression: −21.59%
  % Change WEE1 gene expression: −42.86%
  % Change WWC1 gene expression: −51.64%
  % Change YAP1 gene expression: −47.45%
[2]; cancer stem cell PCR array
  expression of cancer stem cell markers and genes such as Nanog, Axl, Atm, and Bmi-1: downregulated
